We go through nine compounds from BindingDB's records for doi:10.1021/acs.jmedchem.6b01785 (Chinese Academy of Sciences, 2017).

A short description of assay [1]: Inhibition of DOT1L in human MV4-11 cells assessed as reduction in cell viability after 72 hrs by alamar blue assay.
Assay [2] is described as follows: Inhibition of DOT1L in human THP-1 cells assessed as reduction in cell viability after 72 hrs by alamar blue assay.
Assay [3] is described as follows: Inhibition of DOT1L in human KOPN8 cells assessed as reduction in cell viability after 72 hrs by alamar blue assay.

`Fc1cccc(-c2nn3c(Cn4nnc5ccccc54)nnc3s2)c1`: the concentration for half-maximal inhibition (IC50) in assay [1] worked out at 21.9 µM; in assay [2], 55.8 µM; in assay [3], 28.1 µM.

As to `Cc1ccc(-c2nn3c(Cn4cnc5ccccc54)nnc3s2)cc1C`, the IC50 in assay [1] was found to be 64 µM.

With `Brc1cccc(-c2nn3c(Cn4cnc5ccccc54)nnc3s2)c1`, in assay [1], the IC50 was 26.8 µM.

In the case of `CC(C)(C)c1ccc(-c2nn3c(Cn4nnc5ccccc54)nnc3s2)cc1`, the IC50 in assay [1] came to 13.1 µM.

For the compound `c1ccc2c(c1)nnn2Cc1nnc2sc(-c3ccc4c(c3)OCO4)nn12`, the IC50 in assay [1] was 6.75 µM.

For `COc1cccc(-c2nn3c(Cn4nnc5ccccc54)nnc3s2)c1`, in assay [1], the IC50 is 64.2 µM.

Take `Fc1ccc(-c2nn3c(Cn4nnc5ccccc54)nnc3s2)cc1`: the IC50 in assay [1] was found to be 8 µM.

For the compound `c1ccc2c(c1)nnn2Cc1nnc2sc(-c3ccc4c(c3)OCCO4)nn12` [1-{[6-(2,3-dihydro-1,4-benzodioxin-6-yl)[1,2,4]triazolo[3,4-b][1,3,4]thiadiazol-3-yl]methyl}-1H-1,2,3-benzotriazole], the IC50 in assay [1] was 40.7 µM.

`c1ccc(Cc2nn3c(Cn4nnc5ccccc54)nnc3s2)cc1` [3-(1-benzotriazolylmethyl)-6-(phenylmethyl)-[1,2,4]triazolo[3,4-b][1,3,4]thiadiazole]: in assay [1], the IC50 is 48.8 µM.
